Laboratory results: ChEMBL document CHEMBL4602723, “Stalobacin: Discovery of Novel Lipopeptide Antibiotics with Potent Antibacterial Activity against Multidrug-Resistant Bacteria” (J Med Chem, 2020)
In brackets after ≈: the same amount, converted by molar mass. Activity calls are given as the source filed them. The rule behind the calls is not given here.

Key:
Staphylococcus aureus [1] = test: Antibacterial activity against Staphylococcus aureus SMITH assessed as inhibition of bacterial growth incubated for 20 hrs by microdilution broth method; assay type: functional
Staphylococcus aureus [2] = test: Antibacterial activity against Staphylococcus aureus RN4220 assessed as inhibition of bacterial growth incubated for 20 hrs by microdilution broth method; assay type: functional; conditions: RN4220, 20 h
Staphylococcus aureus [3] = test: Antibacterial activity against methicillin-resistant Staphylococcus aureus SR3637 assessed as inhibition of bacterial growth incubated for 20 hrs by microdilution broth method; assay type: functional; conditions: SR3637, 20 h
Staphylococcus aureus [4] = test: Antibacterial activity against Vancomycin-resistant Staphylococcus aureus HIP11714 assessed as inhibition of bacterial growth incubated for 20 hrs by microdilution broth method; assay type: functional; conditions: HIP11714, 20 h
Staphylococcus aureus [5] = test: Antibacterial activity against Vancomycin-resistant Staphylococcus aureus HIP11983 assessed as inhibition of bacterial growth incubated for 20 hrs by microdilution broth method; assay type: functional; conditions: HIP11983, 20 h
Enterococcus faecalis [6] = test: Antibacterial activity against Enterococcus faecalis SR1004 assessed as inhibition of bacterial growth incubated for 20 hrs by microdilution broth method; assay type: functional; conditions: SR1004, 20 h
Enterococcus faecalis [7] = test: Antibacterial activity against Vancomycin-resistant Enterococcus faecalis SR7914 (VanA) assessed as inhibition of bacterial growth incubated for 20 hrs by microdilution broth method; assay type: functional; conditions: SR7914, 20 h
Enterococcus faecalis [8] = test: Antibacterial activity against Vancomycin-resistant Enterococcus faecalis SR23630 (VanB) assessed as inhibition of bacterial growth incubated for 20 hrs by microdilution broth method; assay type: functional; conditions: SR23630, 20 h
Enterococcus faecium [9] = test: Antibacterial activity against Enterococcus faecium SR16972 assessed as inhibition of bacterial growth incubated for 20 hrs by microdilution broth method; assay type: functional; conditions: SR16972, 20 h
Enterococcus faecium [10] = test: Antibacterial activity against Vancomycin-resistant Enterococcus faecium SR7940 (VanA) assessed as inhibition of bacterial growth incubated for 20 hrs by microdilution broth method; assay type: functional; conditions: SR7940, 20 h
Enterococcus faecium [11] = test: Antibacterial activity against Vancomycin-resistant Enterococcus faecium SR23598 (VanB) assessed as inhibition of bacterial growth incubated for 20 hrs by microdilution broth method; assay type: functional; conditions: SR23598, 20 h
Enterococcus faecium [12] = test: Antibacterial activity against Vancomycin-resistant Enterococcus faecium SRM1101 (c_VanB) assessed as inhibition of bacterial growth incubated for 20 hrs by microdilution broth method; assay type: functional; conditions: SRM1101, 20 h
Streptococcus pneumoniae [13] = test: Antibacterial activity against Streptococcus pneumoniae type 1 assessed as inhibition of bacterial growth incubated for 20 hrs by microdilution broth method; assay type: functional; conditions: type 1, 20 h
Streptococcus pneumoniae [14] = test: Antibacterial activity against Streptococcus pneumoniae SR11031 (PRSP) assessed as inhibition of bacterial growth incubated for 20 hrs by microdilution broth method; assay type: functional; conditions: SR11031, 20 h
Streptococcus pneumoniae [15] = test: Antibacterial activity against Streptococcus pneumoniae tupelo (VTSP) assessed as inhibition of bacterial growth incubated for 20 hrs by microdilution broth method; assay type: functional
Escherichia coli [16] = test: Antibacterial activity against Escherichia coli JC2 assessed as inhibition of bacterial growth incubated for 20 hrs by microdilution broth method; assay type: functional; conditions: JC2, 20 h
Klebsiella pneumoniae = test: Antibacterial activity against Klebsiella pneumoniae SR1 assessed as inhibition of bacterial growth incubated for 20 hrs by microdilution broth method; assay type: functional; conditions: SR1, 20 h
Staphylococcus aureus [17] = test: Potency index, ratio of MIC for vancomycin to MIC for test compound for antibacterial activity against methicillin-resistant Staphylococcus aureus SR3637; assay type: functional
Staphylococcus aureus [18] = test: Potency index, ratio of MIC for linezolid to MIC for test compound for antibacterial activity against methicillin-resistant Staphylococcus aureus SR3637; assay type: functional
Staphylococcus aureus [19] = test: Potency index, ratio of MIC for telavancin to MIC for test compound for antibacterial activity against methicillin-resistant Staphylococcus aureus SR3637; assay type: functional
P388 = test: Cytotoxicity in mouse P388 cells assessed as reduction in cell viability; assay type: cell-based
L1210 = test: Cytotoxicity in mouse L1210 cells assessed as reduction in cell viability; assay type: cell-based
Staphylococcus aureus [20] = test: Induction of morphological changes in Staphylococcus aureus RN4220 assessed as inflation of bacterial cell body; assay type: functional, organism-based
Escherichia coli [21] = test: Induction of morphological changes in Escherichia coli JC2 assessed as inflation of bacterial cell body; assay type: functional, organism-based

| Structure (SMILES) | MIC (Staphylococcus aureus [1]) | MIC (Staphylococcus aureus [2]) | MIC (Staphylococcus aureus [3]) | MIC (Staphylococcus aureus [4]) | MIC (Staphylococcus aureus [5]) | MIC (Enterococcus faecalis [6]) | MIC (Enterococcus faecalis [7]) | MIC (Enterococcus faecalis [8]) | MIC (Enterococcus faecium [9]) | MIC (Enterococcus faecium [10]) | MIC (Enterococcus faecium [11]) | MIC (Enterococcus faecium [12]) | MIC (Streptococcus pneumoniae [13]) | MIC (Streptococcus pneumoniae [14]) | MIC (Streptococcus pneumoniae [15]) | MIC (Escherichia coli [16]) | MIC (Klebsiella pneumoniae) | other results |
| --- | --- | --- | --- | --- | --- | --- | --- | --- | --- | --- | --- | --- | --- | --- | --- | --- | --- | --- |
| CCCCCC/C=C\CCCCC[C@@H]1C[C@H]1/C=C/C(O)C(=O)N[C@H](C(=O)N(C)[C@@H](CC(=O)O)C(=O)N(COC(C)(CC)C(NC(=O)C(NC(=O)[C@@H](N)CC(=O)O)C(O)C(O)CNC(=N)N)C(=O)NCC(=O)N[C@@H](CO)C(=O)O)[C@@]12C[C@@H]1CNC2=O)[C@H](O)C(=O)O (stereo partly drawn) | 0.5 µg/mL (≈ 0.39 µM) | 0.5 µg/mL (≈ 0.39 µM) | 1 µg/mL (≈ 0.779 µM) | 0.5 µg/mL (≈ 0.39 µM) | 1 µg/mL (≈ 0.779 µM) | > 64 µg/mL | > 64 µg/mL | > 64 µg/mL | 4 µg/mL (≈ 3.12 µM) | 2 µg/mL (≈ 1.56 µM) | 1 µg/mL (≈ 0.779 µM) | 1 µg/mL (≈ 0.779 µM) | 0.25 µg/mL (≈ 0.195 µM) | 0.25 µg/mL (≈ 0.195 µM) | ≤ 0.004 µg/mL | 4 µg/mL (≈ 3.12 µM) | 2 µg/mL (≈ 1.56 µM) |  |
| CCCCCCCCCCNCCN[C@@]1(C)C[C@H](O[C@H]2[C@H](Oc3c4cc5cc3Oc3ccc(cc3Cl)[C@@H](O)[C@@H](NC(=O)[C@@H](CC(C)C)NC)C(=O)N[C@@H](CC(N)=O)C(=O)N[C@H]5C(=O)N[C@H]3C(=O)N[C@H](C(=O)N[C@H](C(=O)O)c5cc(O)c(CNCP(=O)(O)O)c(O)c5-c5cc3ccc5O)[C@H](O)c3ccc(c(Cl)c3)O4)O[C@H](CO)[C@@H](O)[C@@H]2O)O[C@@H](C)[C@H]1O [TELAVANCIN] | 0.5 µg/mL (≈ 0.285 µM) | 0.5 µg/mL (≈ 0.285 µM) | 1 µg/mL (≈ 0.57 µM) | 4 µg/mL (≈ 2.28 µM) | 4 µg/mL (≈ 2.28 µM) | 1 µg/mL (≈ 0.57 µM) | 4 µg/mL (≈ 2.28 µM) | 1 µg/mL (≈ 0.57 µM) | 0.5 µg/mL (≈ 0.285 µM) | 8 µg/mL (≈ 4.56 µM) | 0.5 µg/mL (≈ 0.285 µM) | 8 µg/mL (≈ 4.56 µM) | ≤ 0.063 µg/mL | ≤ 0.063 µg/mL | ≤ 0.063 µg/mL |  |  |  |
| CN[C@H](CC(C)C)C(=O)N[C@H]1C(=O)N[C@@H](CC(N)=O)C(=O)N[C@H]2C(=O)N[C@H]3C(=O)N[C@H](C(=O)N[C@H](C(=O)O)c4cc(O)cc(O)c4-c4cc3ccc4O)[C@H](O)c3ccc(c(Cl)c3)Oc3cc2cc(c3O[C@@H]2O[C@H](CO)[C@@H](O)[C@H](O)[C@H]2O[C@H]2C[C@](C)(N)[C@H](O)[C@H](C)O2)Oc2ccc(cc2Cl)[C@H]1O [VANCOMYCIN] |  |  |  | > 64 µg/mL | > 64 µg/mL | 1 µg/mL (≈ 0.69 µM) | > 64 µg/mL | 32 µg/mL (≈ 22.1 µM) |  | > 64 µg/mL | > 64 µg/mL | > 64 µg/mL | 0.5 µg/mL (≈ 0.345 µM) | 0.25 µg/mL (≈ 0.173 µM) | 0.25 µg/mL (≈ 0.173 µM) | > 64 µg/mL | > 64 µg/mL |  |
| CCCCCC/C=C\CCCCC[C@@H]1C[C@H]1/C=C/C(O)C(=O)N[C@H](C(=O)N(C)[C@@H](CC(=O)O)C(=O)N(COC(C)(CC)C(NC(=O)C(NC(=O)[C@@H](N)CC(=O)O)C(O)C(O)CNC(=N)N)C(=O)NCC(=O)N[C@@H](CO)C(=O)O)[C@@]12C[C@@H]1CN(C(=N)N)C2=O)[C@H](O)C(=O)O (stereo partly drawn) | 0.004 µg/mL (≈ 0.00302 µM) | 0.004 µg/mL (≈ 0.00302 µM) | 0.008 µg/mL (≈ 0.00604 µM) | 0.004 µg/mL (≈ 0.00302 µM) | 0.004 µg/mL (≈ 0.00302 µM) | 0.008 µg/mL (≈ 0.00604 µM) | 0.016 µg/mL (≈ 0.0121 µM) | 0.004 µg/mL (≈ 0.00302 µM) | 0.004 µg/mL (≈ 0.00302 µM) | 0.004 µg/mL (≈ 0.00302 µM) | 0.004 µg/mL (≈ 0.00302 µM) | 0.004 µg/mL (≈ 0.00302 µM) | ≤ 0.004 µg/mL | ≤ 0.004 µg/mL | ≤ 0.004 µg/mL | 4 µg/mL (≈ 3.02 µM) | 1 µg/mL (≈ 0.754 µM) | Ratio (Staphylococcus aureus [17]): 125 - 250; Ratio (Staphylococcus aureus [18]): 125 - 250; Ratio (Staphylococcus aureus [19]): 125 - 250; IC50 (P388): > 12.5 µg/mL; IC50 (L1210): > 12.5 µg/mL; Activity (Staphylococcus aureus [20]): Active; Activity (Escherichia coli [21]): Active |
| CC(=O)NC[C@H]1CN(c2ccc(N3CCOCC3)c(F)c2)C(=O)O1 [LINEZOLID] |  |  |  |  |  |  |  |  | 2 µg/mL (≈ 5.93 µM) | 2 µg/mL (≈ 5.93 µM) | 2 µg/mL (≈ 5.93 µM) | 2 µg/mL (≈ 5.93 µM) |  |  |  |  |  |  |
